# From US8613927B2, “High affinity human antibodies to human nerve growth factor” (Regeneron Pharmaceuticals, Inc., priority 2007, dated 2013)
# B1: TrkA-hFc: soluble receptorbody: extracellular domain of human TrkA fused with Fc portion of human IgG1 (protein)
# chain: AAPCPDACCPHGSSGLRCTRDGALDSLHHLPGAENLTELYIENQQHLQHLELRDLRGLGELRNLTIVKSGLRFVAPDAFHFTPRLSRLNLSFNALESLSWKTVQGLSLQELVLSGNPLHCSCALRWLQRWEEEGLGGVPEQKLQCHGQGPLAHMPNASCGVPTLKVQVPNASVDVGDDVLLRCQVEGRGLEQAGWILTELEQSATVMKSGGLPSLGLTLANVTSDLNRKNVTCWAENDVGRAEVSVQVNVSFPASVQLHTAVEMHHWCIPFSVDGQPAPSLRWLFNGSVLNETSFIFTEFLEPAANETVRHGCLRLNQPTHVNNGNYTLLAANPFGQASASIMAAFMDNPFEFNPEDPIPVSFSPVDTNSTSGDPVEKKDETPFGVSVAVG
# modifications: left off: a dimerising Fc or GST
# notes: soluble receptorbody: extracellular domain of human TrkA fused with Fc portion of human IgG1
# B2: p75-hFc: soluble receptorbody: extracellular domain of human p75 fused with Fc portion of human IgG1 (protein)
# chain: KEACPTGLYTHSGECCKACNLGEGVAQPCGANQTVCEPCLDSVTFSDVVSATEPCKPCTECVGLQSMSAPCVEADDAVCRCAYGYYQDETTGRCEACRVCEAGSGLVFSCQDKQNTVCEECPDGTYSDEANHVDPCLPCTVCEDTERQLRECTRWADAECEEIPGRWITRSTPPEGSDSTAPSTQEPEAPPEQDLIASTVAGVVTTVMGSSQPVVTRGTTDN
# modifications: left off: a dimerising Fc or GST
# notes: soluble receptorbody: extracellular domain of human p75 fused with Fc portion of human IgG1
# Key:
# [1] = system: circulating levels of neurotrophin-3 (NT-3); experiment: Serum NT-3 sandwich ELISA, mice of post incision pain model; type: in vivo, mouse; conditions: day 4, 25 mg/kg i.p., mean±std dev, limit of detection ~40 pg/ml
# Description: On day 4, after the behavioral tests from post incision pain model were completed, the mice's sera were collected and analyzed for circulating levels of neurotrophin-3 (NT-3) using a sandwich ELISA. The limit of detection (˜40 pg/ml) was defined as two standard deviations (2σ) above background with a minimum of five NT-3 standards to define the response to concentration curve.
# C57BL/6 male mice = experiment: Seltzer model of neuropathic pain, Hargreaves' test; type: in vivo, mouse
# Description: Neuropathic pain. The mouse Seltzer model of neuropathic pain (Malmberg et al. (1998) Pain 76:215-222) was used with C57BL/6 male mice, in which a partial nerve injury was produced by tying a tight ligature with a 7-0 silk suture around approximately ⅓ to ½ the diameter of the sciatic nerve of one single thigh per mouse. Post-surgery, the mice were allowed to recover for at least two days and then they were studied for several weeks post-surgery for thermal hyperalgesia in the Hargreaves' test. Controls were sham-operated mice in which the sciatic nerve was exposed and elevated but not tied. Following surgery, the mice were tested at day […] and at day 7 post-surgery to confirm that the thermal hyperalgesia had developed.
# Following the Seltzer surgery, mice were tested at days 5 and 7 post-surgery to confirm that the thermal hyperalgesia had developed.
# C57BL/6 mice = experiment: Post-operative incision pain model, mechanical allodynia in von Frey test; type: in vivo, mouse; conditions: Table 17
# Description: Thermal hyperalgesia was studied in the Hargreaves' test and mechanical allodynia was tested in the von Frey test. In this latter test, mice were tested after being acclimated for 2-3 hours for 4 days in an apparatus with a wire mesh floor. The test was performed by applying, in ascending order, a series of von Frey hairs through the wire mesh onto the plantar surface of the hind paw with the incision. A response was considered positive if the paw was raised from the platform in response to application of the filament. Starting from the thinnest hair, each von Frey filament was applied up to five times until a response was observed.
# [2] = target: Human NGF binding to human TrkA-hFc (Homo sapiens, UniProt P01138, DEL136-138/DEL208-209); experiment: BIACORE receptor blocking assay, free NGF bound to TrkA-hFc; conditions: percentage free NGF bound; NGF 10-25 nM with molar excess of antibody; NGF alone = 100%
# Description: (§1) To identify blocking antibodies, a receptor blocking assay was designed using a BIACORE™ 3000 instrument. Recombinant human TrkA-hFc and human p75-hFc proteins were amine-coupled to a CM5 chip to a density of about 5000-6000 RU.
# [3] = target: Human NGF binding to human p75-hFc (Homo sapiens, UniProt P01138, DEL136-138/DEL208-209); experiment: BIACORE receptor blocking assay, free NGF bound to p75-hFc; conditions: percentage free NGF bound; NGF 10-25 nM with molar excess of antibody; NGF alone = 100%
# Description: as §1
# Human NGF binding to human p75-hFc, sequence (P01138 with tags, fused parts or gaps DEL136-138/DEL208-209): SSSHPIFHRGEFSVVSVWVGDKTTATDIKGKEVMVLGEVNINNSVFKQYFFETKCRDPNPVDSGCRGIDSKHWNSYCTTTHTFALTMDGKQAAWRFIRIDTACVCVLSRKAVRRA
# Human NGF binding to human TrkA-hFc, sequence (P01138 with tags, fused parts or gaps DEL136-138/DEL208-209): as above
molecule,measurement,setting,value
REGN475: HCVR/LCVR SEQ ID NO:108/110 and mutant hIgG4 SEQ ID NO:543,Serum NT-3,[1],not detected
same,pain relief,"C57BL/6 male mice; 50 mg/kg s.c. or i.p. at day 7 post-surgery, p<0.001-0.05",Significant pain relief was observed
same,mean percent change from Hargreaves baseline,"C57BL/6 male mice; Table 25, 50 mg/kg s.c. at day 7, day 5 after surgery",−55.2 ± 3.5%
same,mean percent change from Hargreaves baseline,"C57BL/6 male mice; Table 25, 50 mg/kg s.c. at day 7, day 7",−50.9 ± 4.3%
same,mean percent change from Hargreaves baseline,"C57BL/6 male mice; Table 25, 50 mg/kg s.c. at day 7, day 8",10.3 ± 14.1%
same,mean percent change from Hargreaves baseline,"C57BL/6 male mice; Table 25, 50 mg/kg s.c. at day 7, day 9",8.2 ± 7.2%
same,mean percent change from Hargreaves baseline,"C57BL/6 male mice; Table 25, 50 mg/kg s.c. at day 7, day 12",−20.1 ± 4.3%
same,mean percent change from Hargreaves baseline,"C57BL/6 male mice; Table 25, 50 mg/kg s.c. at day 7, day 15",−14.1 ± 6.1%
same,mean percent change from Hargreaves baseline,"C57BL/6 male mice; Table 25, 50 mg/kg s.c. at day 7, day 19",3.0 ± 10.9%
same,mean percent change from Hargreaves baseline,"C57BL/6 male mice; Table 25, 50 mg/kg s.c. at day 7, day 22",−13.7 ± 13.4%
same,mean percent change from Hargreaves baseline,"C57BL/6 male mice; Table 25, 50 mg/kg s.c. at day 7 post-surgery, Baseline",0.0 ± 0.0%
same,mean percent change from Hargreaves baseline,"C57BL/6 male mice; Table 26, 50 mg/kg i.p. at day 7, day 5 after surgery",−58.7 ± 2.3%
same,mean percent change from Hargreaves baseline,"C57BL/6 male mice; Table 26, 50 mg/kg i.p. at day 7, day 7",−61.7 ± 2.7%
same,mean percent change from Hargreaves baseline,"C57BL/6 male mice; Table 26, 50 mg/kg i.p. at day 7, day 8",−8.2 ± 16.1%
same,mean percent change from Hargreaves baseline,"C57BL/6 male mice; Table 26, 50 mg/kg i.p. at day 7, day 9",−7.9 ± 9.6%
same,mean percent change from Hargreaves baseline,"C57BL/6 male mice; Table 26, 50 mg/kg i.p. at day 7, day 12",−0.1 ± 22.8%
same,mean percent change from Hargreaves baseline,"C57BL/6 male mice; Table 26, 50 mg/kg i.p. at day 7, day 15",−10.8 ± 18.0%
same,mean percent change from Hargreaves baseline,"C57BL/6 male mice; Table 26, 50 mg/kg i.p. at day 7 post-surgery, Baseline",0.0 ± 0.0%
same,Paw Withdrawal Threshold,"C57BL/6 mice; 25 mg/kg i.p. on day 1 post-surgery, Baseline",1.286 ± 0.074 g
same,Paw Withdrawal Threshold,"C57BL/6 mice; 25 mg/kg i.p., 5 hr after treatment",0.034 ± 0.009 g
same,Paw Withdrawal Threshold,"C57BL/6 mice; 25 mg/kg i.p., 22 hr after treatment",0.714 ± 0.074 g
same,Paw Withdrawal Threshold,"C57BL/6 mice; 25 mg/kg i.p., 45 hr after treatment",1.086 ± 0.184 g
same,Paw Withdrawal Threshold,"C57BL/6 mice; 25 mg/kg i.p., 70 hr after treatment",1.571 ± 0.437 g
same,Paw Withdrawal Threshold,"C57BL/6 mice; 25 mg/kg i.p., Day 1 (post-surgery, before injection)",0.010 ± 0.002 g
B1,% Binding TrkA-hFc,[2],10%
same,% Binding p75-hFc,[3],15%
B2,% Binding TrkA-hFc,[2],3%
same,% Binding p75-hFc,[3],5%
